Experimental data as given in ChEMBL document CHEMBL1909046, “DrugMatrix in vitro pharmacology data”.

Columns and labels:
[1] = DRUGMATRIX: Phosphodiesterase PDE4 enzyme inhibition (substrate: [3H]cAMP + cAMP); details: u-937; Not Active = under 50% inhibition at 10 µM
[2] = biological target: Matrix metalloproteinase-9 (Homo sapiens, UniProt P14780); type: cell-based;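 note: inhibition of isolated MMP-9 enzyme activity toward a synthetic peptide substrate, from the DrugMatrix protease screening panel; in other assays of this panel Not Active means under 50% inhibition at 10 µM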
Matrix metalloproteinase-9, sequence (P14780 whole entry): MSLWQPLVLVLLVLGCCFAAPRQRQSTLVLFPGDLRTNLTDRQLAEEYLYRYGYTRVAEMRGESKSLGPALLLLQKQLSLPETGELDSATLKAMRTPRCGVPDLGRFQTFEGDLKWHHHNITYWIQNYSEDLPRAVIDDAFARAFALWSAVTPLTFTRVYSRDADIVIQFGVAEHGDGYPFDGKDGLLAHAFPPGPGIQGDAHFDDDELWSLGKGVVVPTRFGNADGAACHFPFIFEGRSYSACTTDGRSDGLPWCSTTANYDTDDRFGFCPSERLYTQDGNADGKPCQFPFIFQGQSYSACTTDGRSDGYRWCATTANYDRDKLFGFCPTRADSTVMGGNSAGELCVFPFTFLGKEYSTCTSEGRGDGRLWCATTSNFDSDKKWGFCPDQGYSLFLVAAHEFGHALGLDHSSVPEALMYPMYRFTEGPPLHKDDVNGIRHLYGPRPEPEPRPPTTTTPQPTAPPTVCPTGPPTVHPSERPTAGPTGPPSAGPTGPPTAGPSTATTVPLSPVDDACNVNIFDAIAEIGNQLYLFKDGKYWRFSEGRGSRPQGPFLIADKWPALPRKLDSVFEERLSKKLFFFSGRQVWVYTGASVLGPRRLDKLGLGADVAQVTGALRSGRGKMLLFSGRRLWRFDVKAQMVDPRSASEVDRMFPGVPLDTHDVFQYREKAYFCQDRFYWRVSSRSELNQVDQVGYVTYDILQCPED

[3] = biological target: 5-hydroxytryptamine receptor 1B (Rattus norvegicus, UniProt P28564); type: cell membranes, Wistar, Cerebral cortex, Membrane; note: in other assays of this panel Not Active means under 50% inhibition at 10 µM
5-hydroxytryptamine receptor 1B, sequence (P28564 whole entry): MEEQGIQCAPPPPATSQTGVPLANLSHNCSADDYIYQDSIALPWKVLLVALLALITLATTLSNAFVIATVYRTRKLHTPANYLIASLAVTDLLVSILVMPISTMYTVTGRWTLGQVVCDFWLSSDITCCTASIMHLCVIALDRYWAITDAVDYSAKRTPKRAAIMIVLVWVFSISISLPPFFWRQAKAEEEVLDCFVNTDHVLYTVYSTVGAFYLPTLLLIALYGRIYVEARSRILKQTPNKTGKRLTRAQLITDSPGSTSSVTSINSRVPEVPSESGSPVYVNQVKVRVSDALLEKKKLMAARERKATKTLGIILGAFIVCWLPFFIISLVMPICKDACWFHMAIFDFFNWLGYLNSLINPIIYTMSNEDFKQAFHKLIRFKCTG

[4] = DRUGMATRIX: Tumor Necrosis Factor (TNF), Non-Selective radioligand binding (ligand: [125I] TNF-alpha); type: cell membranes, Membrane; details: u-937; Not Active = under 50% inhibition at 10 µM
Cytochrome P450 2C9 = Cytochrome P450 2C9 (Homo sapiens, UniProt P11712); details: bti-tn-5b1-4; note: in other assays of this panel Not Active means under 50% inhibition at 10 µM
Cytochrome P450 2C9, sequence (P11712 whole entry): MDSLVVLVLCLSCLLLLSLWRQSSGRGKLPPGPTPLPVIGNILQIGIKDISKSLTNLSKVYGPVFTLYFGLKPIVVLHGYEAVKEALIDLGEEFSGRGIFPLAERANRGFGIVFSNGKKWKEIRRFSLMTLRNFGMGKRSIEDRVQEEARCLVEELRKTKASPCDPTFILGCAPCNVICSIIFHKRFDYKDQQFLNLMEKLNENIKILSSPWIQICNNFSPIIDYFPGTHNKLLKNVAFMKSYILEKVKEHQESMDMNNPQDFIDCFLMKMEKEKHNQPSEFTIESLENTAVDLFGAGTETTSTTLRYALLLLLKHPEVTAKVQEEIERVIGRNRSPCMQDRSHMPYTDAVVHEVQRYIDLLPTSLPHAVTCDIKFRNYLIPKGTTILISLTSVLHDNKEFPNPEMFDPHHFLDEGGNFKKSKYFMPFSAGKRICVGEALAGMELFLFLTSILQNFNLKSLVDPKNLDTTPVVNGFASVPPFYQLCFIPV

[5] = biological target: T1, 3-hydroxy-3-methylglutaryl-coenzyme A reductase (Homo sapiens, UniProt P04035); parameters: species or system Escherichia coli;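 note: enzyme inhibition assay of HMG-CoA reductase using radiolabeled [14C]HMG-CoA as substrate; in other assays of this panel Not Active means under 50% inhibition at 10 µM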
T1 sequence (P04035 whole entry): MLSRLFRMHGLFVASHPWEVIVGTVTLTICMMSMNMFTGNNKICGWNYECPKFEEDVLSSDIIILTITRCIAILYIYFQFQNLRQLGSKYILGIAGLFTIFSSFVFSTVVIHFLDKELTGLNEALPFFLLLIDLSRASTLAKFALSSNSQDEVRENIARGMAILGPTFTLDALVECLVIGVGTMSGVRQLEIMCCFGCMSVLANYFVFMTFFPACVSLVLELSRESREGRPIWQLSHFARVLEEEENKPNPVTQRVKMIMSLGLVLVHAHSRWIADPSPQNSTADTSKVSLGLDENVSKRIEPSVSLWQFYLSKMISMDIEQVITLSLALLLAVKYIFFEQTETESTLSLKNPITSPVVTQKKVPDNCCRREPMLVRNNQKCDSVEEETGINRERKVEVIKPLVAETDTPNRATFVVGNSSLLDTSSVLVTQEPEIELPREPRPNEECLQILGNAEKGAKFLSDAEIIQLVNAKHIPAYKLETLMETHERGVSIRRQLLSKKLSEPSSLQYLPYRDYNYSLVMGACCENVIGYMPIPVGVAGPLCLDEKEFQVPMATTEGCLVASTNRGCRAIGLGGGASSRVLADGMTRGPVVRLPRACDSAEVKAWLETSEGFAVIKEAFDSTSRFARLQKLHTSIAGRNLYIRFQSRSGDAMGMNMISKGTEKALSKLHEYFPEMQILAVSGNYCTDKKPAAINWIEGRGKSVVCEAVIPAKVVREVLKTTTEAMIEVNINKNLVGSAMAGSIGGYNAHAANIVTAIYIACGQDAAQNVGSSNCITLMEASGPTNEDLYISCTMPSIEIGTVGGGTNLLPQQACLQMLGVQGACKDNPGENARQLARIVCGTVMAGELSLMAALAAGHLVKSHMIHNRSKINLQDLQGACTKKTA

Cytochrome P450 3A4 = Cytochrome P450 3A4 (Homo sapiens, UniProt P08684); details: bti-tn-5b1-4; note: in other assays of this panel Not Active means under 50% inhibition at 10 µM
Cytochrome P450 3A4, sequence (P08684 whole entry): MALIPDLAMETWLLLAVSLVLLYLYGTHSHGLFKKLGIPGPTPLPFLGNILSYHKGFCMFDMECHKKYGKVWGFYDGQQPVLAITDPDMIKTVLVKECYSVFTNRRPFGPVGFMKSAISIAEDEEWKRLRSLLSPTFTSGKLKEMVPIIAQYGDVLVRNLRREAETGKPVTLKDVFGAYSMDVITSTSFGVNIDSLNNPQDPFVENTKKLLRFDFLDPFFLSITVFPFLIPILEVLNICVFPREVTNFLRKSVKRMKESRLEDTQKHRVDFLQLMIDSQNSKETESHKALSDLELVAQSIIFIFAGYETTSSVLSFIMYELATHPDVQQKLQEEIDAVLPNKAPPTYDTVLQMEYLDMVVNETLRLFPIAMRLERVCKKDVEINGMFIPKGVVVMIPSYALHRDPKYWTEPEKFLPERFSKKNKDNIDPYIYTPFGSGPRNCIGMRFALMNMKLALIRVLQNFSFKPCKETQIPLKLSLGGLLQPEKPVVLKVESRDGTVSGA

[6] = biological target: Beta-1 adrenergic receptor (Homo sapiens, UniProt P08588); assay: DRUGMATRIX: Adrenergic beta1 radioligand binding (ligand: [125I] Cyanopindolol); type: cell membranes, CHO-K1, Membrane; details: cho-k1; Not Active = under 50% inhibition at 10 µM
Beta-1 adrenergic receptor, sequence (P08588 whole entry): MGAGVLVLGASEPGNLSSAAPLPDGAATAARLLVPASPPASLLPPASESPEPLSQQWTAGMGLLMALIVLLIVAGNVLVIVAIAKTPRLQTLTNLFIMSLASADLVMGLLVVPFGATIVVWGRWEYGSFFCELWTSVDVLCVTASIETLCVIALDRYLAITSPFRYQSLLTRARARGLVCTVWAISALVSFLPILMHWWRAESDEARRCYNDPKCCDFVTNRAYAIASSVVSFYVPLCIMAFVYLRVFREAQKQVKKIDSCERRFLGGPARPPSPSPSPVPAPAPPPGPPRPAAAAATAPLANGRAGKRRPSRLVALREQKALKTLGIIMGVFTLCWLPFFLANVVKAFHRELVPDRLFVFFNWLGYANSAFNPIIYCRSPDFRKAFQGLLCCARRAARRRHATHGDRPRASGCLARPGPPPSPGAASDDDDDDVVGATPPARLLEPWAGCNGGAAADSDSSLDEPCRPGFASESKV

COC(=O)Nc1nc2ccc(Sc3ccccc3)cc2[nH]1 [FENBENDAZOLE]
Not Active: IC50 [1] | Ki [1] | IC50 [2] | IC50 [3] | IC50 [4] | Ki [4] | IC50 (Cytochrome P450 2C9) | Ki (Cytochrome P450 2C9) | IC50 [5] | IC50 (Cytochrome P450 3A4) | Ki (Cytochrome P450 3A4) | IC50 [6]

CNC[C@H](O)c1ccc(O)c(O)c1 [EPINEPHRINE]
Not Active: IC50 [1] | Ki [1] | IC50 [2] | IC50 [3] | IC50 [4] | Ki [4] | IC50 (Cytochrome P450 2C9) | Ki (Cytochrome P450 2C9) | IC50 [5] | IC50 (Cytochrome P450 3A4) | Ki (Cytochrome P450 3A4) | IC50 [6]

C=CCO [ALLYL ALCOHOL]
Not Active: IC50 [1] | Ki [1] | IC50 [2] | IC50 [3] | IC50 [4] | Ki [4] | IC50 (Cytochrome P450 2C9) | Ki (Cytochrome P450 2C9) | IC50 [5] | IC50 (Cytochrome P450 3A4) | Ki (Cytochrome P450 3A4) | IC50 [6]

CARBOXYMETHYLCELLULOSE
Not Active: IC50 [1] | Ki [1] | IC50 [2] | Ki [2] | IC50 [3] | Ki [3] | IC50 [4] | Ki [4] | IC50 (Cytochrome P450 2C9) | Ki (Cytochrome P450 2C9) | IC50 [5] | Ki [5] | IC50 (Cytochrome P450 3A4) | Ki (Cytochrome P450 3A4) | IC50 [6] | Ki [6]

C=CCN1CC[C@]23c4c5ccc(O)c4O[C@H]2/C(=N/N=C2\CC[C@@]4(O)[C@H]6Cc7ccc(O)c8c7[C@@]4(CCN6CC=C)[C@H]2O8)CC[C@@]3(O)[C@H]1C5 [NALOXONAZINE]
Not Active: IC50 [1] | Ki [1] | IC50 [2] | IC50 [3] | IC50 [4] | Ki [4] | IC50 (Cytochrome P450 2C9) | Ki (Cytochrome P450 2C9) | IC50 [5] | IC50 (Cytochrome P450 3A4) | Ki (Cytochrome P450 3A4) | IC50 [6]

Cc1ccnc2c1NC(=O)c1cccnc1N2C1CC1 [NEVIRAPINE]
Not Active: IC50 [1] | Ki [1] | IC50 [2] | IC50 [3] | IC50 [4] | Ki [4] | IC50 (Cytochrome P450 2C9) | Ki (Cytochrome P450 2C9) | IC50 [5] | IC50 (Cytochrome P450 3A4) | Ki (Cytochrome P450 3A4) | IC50 [6]

NCC(CC(=O)O)c1ccc(Cl)cc1 (configuration not stated) [BACLOFEN]
Not Active: IC50 [1] | Ki [1] | IC50 [2] | IC50 [3] | IC50 [4] | Ki [4] | IC50 (Cytochrome P450 2C9) | Ki (Cytochrome P450 2C9) | IC50 [5] | IC50 (Cytochrome P450 3A4) | Ki (Cytochrome P450 3A4) | IC50 [6]

CO[C@H]1O[C@@H]2O[C@@]3(C)CC[C@H]4[C@H](C)CC[C@@H]([C@H]1C)[C@@]24OO3
Not Active: IC50 [1] | Ki [1] | IC50 [2] | IC50 [3] | IC50 [4] | Ki [4] | IC50 (Cytochrome P450 2C9) | Ki (Cytochrome P450 2C9) | IC50 [5] | IC50 (Cytochrome P450 3A4) | Ki (Cytochrome P450 3A4) | IC50 [6]

CC(CN1c2ccccc2Sc2ccccc21)N(C)C (configuration not stated) [PROMETHAZINE]
Not Active: IC50 [1] | Ki [1] | IC50 [2] | IC50 [3] | IC50 [4] | Ki [4] | IC50 (Cytochrome P450 2C9) | Ki (Cytochrome P450 2C9) | IC50 [5] | IC50 (Cytochrome P450 3A4) | Ki (Cytochrome P450 3A4) | IC50 [6]
